{"source": "patent US6689803B2", "about": "“Compositions and methods for treating surgical adhesions” (Angiotech Pharmaceuticals, Inc., priority 1996, dated 2004)", "key": {"skin inflammation": {"system": "skin inflammation", "test": "Mouse ear skin inflammation (oxazolone delayed-type hypersensitivity, PMA)", "method": "Briefly, mice were sensitized to oxazolone by topical application of the compound onto the skin. Five days later, mice were challenged with oxazolone by topical application onto the ear skin (left ear: oxazolone, right ear: vehicle alone), resulting in a cutaneous inflammatory, “delayed-type hypersensitivity” reaction. […] Epon-embedded, Giesma-stained, 1 μm tissue sections were evaluated for the presence of inflammatory cells, for the presence of tissue mast cells and their state of activation, and for the degree of epidermal hyperplasia."}, "TR1 T-cell clones": {"system": "TR1 T-cell clones", "test": "T cell response to antigenic stimulus (tritiated thymidine incorporation)", "assay_type": "cell-based", "settings": "micellar formulation; GP68-88 or conA; added at start or 24 hours after stimulation; 48 hours", "method": "Tritiated thymidine incorporation was determined as a measure of T-cell proliferation in response to peptide or conA stimulation."}, "[1]": {"test": "Solubility / complexation of paclitaxel with cyclodextrins", "assay_type": "physicochemical", "protocol": "The mobile phase was composed of a mixture of acetonitrile, methanol and water (58:5:37) at a flow rate of 1.0 ml/minute."}, "[2]": {"test": "In vitro release of paclitaxel from polymeric formulations", "assay_type": "physicochemical", "settings": "for paclitaxel released: 10 days in PBS", "protocol": "The tube was incubated at 37° C. with gentle rotational mixing. […] The supernatant (10 ml) was extracted with 1 ml methylene chloride. […] The injection volume was 20 μl and the flow rate was 1 ml/minute.\nAn equal volume of PBS was replaced in each tube to maintain sink conditions throughout the study.\nSampling daily (three sampling at the first day) to maintain the sink condition."}, "neutrophils": {"system": "neutrophils", "test": "Superoxide anion generation by neutrophils", "assay_type": "cell-based, human", "settings": "28 μM", "protocol": "All experiments that studied neutrophil responses to crystals or zymosan in the presence of paclitaxel were performed using plasma opsonized CPPD or zymosan. Opsonization of crystals or zymosan was done with 50% heparinized plasma at a concentration of 75 mg of CPPD or 12 mg of zymosan per ml of 50% plasma Crystals or zymosan were incubated with plasma for 30 minutes at 37° C. and then washed in excess HBSS.\nNeutrophil viability and purity was always greater than 90%.\nSuperoxide anion concentrations were measured using the superoxide dismutase inhibitable reduction of cytochrome C assay. Briefly, 25 mg of crystals or 0.5 mg of zymosan was placed in a 1.5 ml capped Eppendorf tube and warmed to 37° C. 0.5 ml of cells at 37° C. were added together with ferricytochrome C (final concentration 1.2 mg/ml) and the cells were activated by shaking the capped tubes. At appropriate times tubes were centrifuged at 10,000 g for 10 seconds and the supernatant collected for assay be measuring the absorbance of 550 nm. Control tubes were set up under the same conditions with the inclusion of superoxide dismutase at 600 units per ml."}, "chondrocytes": {"system": "chondrocytes", "test": "Viability of non-proliferating chondrocytes (trypan blue)", "assay_type": "cell-based", "settings": "up to 10^−5 M, 72 hours", "from_the_text": "While it is important that a disease-modifying agent be capable of strongly inhibiting a variety of inappropriate cellular activities (proliferation, inflammation, proteolytic enzyme production) which occur in excess during the development of chronic inflammation, it must not be toxic to the normal tissues. It is particularly critical that normal cells not be damaged, as this would lead to progression of the disease."}, "LNCaP cells": {"system": "LNCaP cells", "test": "LNCaP cell growth (crystal violet)", "assay_type": "cell-based, human", "settings": "Homo sapiens, LNCaP, 120 h; 5 days; read-out: EC50", "protocol": "LNCaP cells were seeded at concentrations of 2×10^3 and 1×10^3 cells/well respectively in 96 well plates. […] After incubation, the cells were fixed with 1% glutaraldehyde solution, and stained for 5 minutes with 0.5% crystal violet. The dye was successively eluted with 100 μl of buffer solution and the absorbance was read on a Titertek Multiskan microplate reader using a wavelength of 492 nm Absorbance. Cell growth was expressed as a percentage relative to control wells in the absence of the compound (set at 100%)."}, "EOMA cells [3]": {"system": "EOMA cells", "test": "Endothelial cell proliferation (trypan blue exclusion)", "assay_type": "cell-based", "settings": "48 hours", "method": "Following the incubation, the number of viable cells were determined using the trypan blue exclusion assay. […] All cell toxicity assays were performed three times, and each individual measurement was made in triplicate."}, "synoviocytes": {"system": "synoviocytes", "test": "3H-thymidine incorporation into synoviocytes", "assay_type": "cell-based", "settings": "6 or 24 hours", "method": "At these times, 1×10^−6 cpm of ^3H-thymidine was added to the cell culture and incubated for 2 hours at 37° C. The cells were placed through a cell harvester, washed through a filter, the filters were cut, and the amount of radiation contained in the filter sections determined. Once the amount of thymidine incorporated into the cells was ascertained, it was used to determine the rate of cell proliferation. This experiment was repeated three times and the data collated."}, "[4]": {"system": "restenosis / intimal hyperplasia", "test": "Rat carotid artery balloon injury model of restenosis, perivascular treatment", "assay_type": "in vivo", "settings": "paclitaxel-loaded (20%) polymers (EVA film or PCL paste), 2.5 mg perivascular; 14 and 28 days", "protocol": "WISTAR rats weighing 250 to 300 g were anesthetized by the intramuscular injection of Innovar (0.33 ml/kg). Once sedated they were then placed under Halothane anesthesia After general anesthesia was established, fur over the neck region was shaved, the skin clamped and swabbed with betadine. A vertical incision was made over the left carotid artery and the external carotid artery exposed. Two ligatures were placed around the external carotid artery and a transverse arteriotomy was made. […] The endothelium was denuded by passing the inflated balloon up and down the carotid artery three times. The catheter was then removed and the ligature tied off on the left external carotid artery. […] The wound was then closed."}, "EOMA cells [5]": {"system": "EOMA cells", "test": "Endothelial cell apoptosis (DAPI staining)", "assay_type": "cell-based", "settings": "24 hours", "protocol": "The cells were fixed with 3.7% formaldehyde in phosphate buffered saline for 20 minutes, stained with DAPI (4′-6-diaminido-2-phenylindole), 1 ug/ml, and examined with a 40×objective under epifluorescent optics. Apoptotic cells were evaluated by scoring cells for fragmented nuclei and condensed chromatin."}}, "data": [{"smiles": "CC(=O)O[C@H]1C(=O)[C@@]2(C)[C@H]([C@H](OC(=O)c3ccccc3)[C@]3(O)C[C@H](OC(=O)[C@H](O)[C@@H](NC(=O)c4ccccc4)c4ccccc4)C(C)=C1C3(C)C)[C@]1(OC(C)=O)CO[C@@H]1C[C@@H]2O", "note": "[paclitaxel]", "values": [{"measurement": "skin irritation", "setting": "skin inflammation; 1% paclitaxel formulation, 20 μl to each side of the ears daily for 8 days, normal or inflamed ear skin", "value": "no detection of skin irritation"}, {"measurement": "ear swelling and skin erythema induced by PMA", "setting": "skin inflammation; topical 1% paclitaxel formulation", "value": "significantly inhibited ear swelling and skin erythema"}, {"measurement": "ear swelling, delayed-type hypersensitivity reaction (oxazolone)", "setting": "skin inflammation; topical 1% paclitaxel gel versus vehicle alone", "value": "significant decrease in ear swelling"}, {"measurement": "concentration at which T-cell proliferation was (completely) inhibited", "setting": "TR1 T-cell clones", "value": 0.02, "unit": "µM"}, {"measurement": "solubility", "setting": "[1]; 50% HPβ-CD in water, aqueous with cosolvent or surfactant or cyclodextrin, thermodynamic from solid, 50% solution of HPβ-CD in water, 37° C.", "value": 3200, "unit": "µg/mL"}, {"measurement": "increase over the solubility of paclitaxel in water", "setting": "[1]; 50% solution of HPβ-CD in water, 37° C.", "value": "~2000", "unit": "fold"}, {"measurement": "apparent stability constant", "setting": "[1]; HPβ-CD in the presence of 50% ethanol", "value": 26.57, "unit": "M⁻¹"}, {"measurement": "stability constant, first order complex", "setting": "[1]; HPβ-CD, 37° C.", "value": 7.2, "unit": "M⁻¹"}, {"measurement": "stability constant lower than in the absence of ethanol", "setting": "[1]; HPβ-CD, 50% ethanol", "value": "about 300 times"}, {"measurement": "stability constant, first order complex", "setting": "[1]; HPγ-CD, 37° C.", "value": 5.8, "unit": "M⁻¹"}, {"measurement": "stability constant, first order complex", "setting": "[1]; γ-CD, 37° C.", "value": 3.1, "unit": "M⁻¹"}, {"measurement": "paclitaxel released", "setting": "[2]; 5 mg of 30% loaded PLLA microspheres", "value": 400, "unit": "µg"}, {"measurement": "released fraction of total drug content", "setting": "[2]; 5% paclitaxel loaded PCL microspheres, after 21 days, PBS 37° C.", "value": "about 20%"}, {"measurement": "paclitaxel released", "setting": "[2]; 10% loaded PLLA microspheres", "value": 150, "unit": "µg"}, {"measurement": "released paclitaxel", "setting": "[2]; 20% paclitaxel loaded 0:100 PDLLA:PCL (PCL) paste, within 10 days", "value": 6, "unit": "%"}, {"measurement": "released paclitaxel", "setting": "[2]; 20% paclitaxel loaded 70:30 PDLLA:PCL paste, within 10 days", "value": 11, "unit": "%"}, {"measurement": "released paclitaxel", "setting": "[2]; 20% paclitaxel loaded 80:20 PDLLA:PCL paste, within 10 days", "value": 17, "unit": "%"}, {"measurement": "released paclitaxel", "setting": "[2]; 20% paclitaxel loaded 90:10 PDLLA:PCL paste, within 10 hours", "value": "25-35%"}, {"measurement": "released paclitaxel", "setting": "[2]; 20% paclitaxel loaded PDLLA-PEG-PDLLA cylinder, 20% PEG, 1 mm, 30 days", "value": 2, "unit": "%"}, {"measurement": "released paclitaxel", "setting": "[2]; 20% paclitaxel loaded PDLLA-PEG-PDLLA cylinder, 30% PEG, 0.65 mm, 30 days", "value": 26, "unit": "%"}, {"measurement": "released paclitaxel", "setting": "[2]; 20% paclitaxel loaded PDLLA-PEG-PDLLA cylinder, 30% PEG, 1 mm, 30 days, PBS albumin 37° C.", "value": 17, "unit": "%"}, {"measurement": "drug released", "setting": "[2]; paclitaxel-nylon microcapsules, after 72 hours", "value": "more than 95%"}, {"measurement": "inhibition of superoxide anion production", "setting": "neutrophils; opsonized zymosan", "value": "less dramatic than the inhibition of CPPD activation but was significant at all times"}, {"measurement": "superoxide anion production", "setting": "neutrophils; plasma opsonized CPPD crystals", "value": "decrease in the amount of superoxide generated at all times"}, {"measurement": "viability of normal non-proliferating cells", "setting": "chondrocytes", "value": "does not affect the viability"}, {"measurement": "EC50", "setting": "LNCaP cells", "value": "~90", "unit": "pM"}, {"measurement": "inhibition of endothelial cell proliferation", "setting": "EOMA cells [3]; 10^−7M or greater", "value": "completely inhibited cell proliferation"}, {"measurement": "inhibition at 0.01 µM", "setting": "EOMA cells [3]; Endothelial cell, 10^−8M", "value": "> 50", "unit": "%"}, {"measurement": "inhibits incorporation of 3H-thymidine at concentrations as low as", "setting": "synoviocytes", "value": "10^−8 M"}, {"measurement": "restenosis", "setting": "[4]", "value": "completely prevented restenosis"}, {"measurement": "concentrations inducing endothelial cell apoptosis", "setting": "EOMA cells [5]", "value": "greater than 10^−8 M"}]}]}
